ChEMBL document CHEMBL1140684, “Phenylimidazole derivatives as new inhibitors of bacterial enoyl-ACP reductase FabK” (Bioorg Med Chem Lett, 2007)
Converted amounts (≈) assume the structure as drawn.

Tests used:
[1] = biological target: T1, Enoyl-(Acyl-carrier-protein) reductase (Streptococcus pneumoniae, UniProt Q9FBC5); assay: Inhibition of Streptococcus pneumoniae KU197 FabK
T1 sequence (Q9FBC5 whole entry): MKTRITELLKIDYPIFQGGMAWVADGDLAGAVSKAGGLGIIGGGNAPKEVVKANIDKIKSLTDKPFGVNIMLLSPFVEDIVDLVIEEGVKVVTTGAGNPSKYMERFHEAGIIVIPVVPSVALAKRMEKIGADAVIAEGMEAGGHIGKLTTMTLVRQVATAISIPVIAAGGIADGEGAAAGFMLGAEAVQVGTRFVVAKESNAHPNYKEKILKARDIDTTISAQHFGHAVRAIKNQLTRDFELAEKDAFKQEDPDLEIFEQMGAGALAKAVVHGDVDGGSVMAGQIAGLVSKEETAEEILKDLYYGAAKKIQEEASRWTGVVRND

[2] = Inhibition of Escherichia coli FabI
Streptococcus pneumoniae = assay: Antibacterial activity against Streptococcus pneumoniae KU197; assay type: functional

SMILES | IC50 [1] | IC50 [2] | MIC (Streptococcus pneumoniae)
O=C(O)CSc1nc2ccccc2[nH]1 | > 32 µM | – | –
CS(=O)(=O)c1ccc2nc(NC(=O)NCc3nc4ccccc4[nH]3)sc2c1 | 0.76 µM | > 32 µM | 4 µg/mL (≈ 9.96 µM)
COc1ccc2sc(NC(=O)NCc3nc4ccccc4[nH]3)nc2c1 | > 32 µM | > 32 µM | –
O=C(CSc1nc2ccccc2[nH]1)Nc1nc2ccc(C(=O)O)cc2s1 | > 32 µM | – | > 32 µg/mL
COc1cccc2sc(NC(=O)NCc3nc4ccccc4[nH]3)nc12 | > 32 µM | > 32 µM | –
COc1ccc2nc(NC(=O)NCc3nc4ccccc4[nH]3)sc2c1 | 7.6 µM | > 32 µM | 16 µg/mL (≈ 45.3 µM)
CS(=O)(=O)c1ccc2nc(NC(=O)NCc3cccs3)sc2c1 | 24 µM | – | > 32 µg/mL
O=C(CSc1nc2ccccc2[nH]1)Nc1nc2ccccc2s1 | > 32 µM | – | > 32 µg/mL
O=C(NCc1nc2ccccc2[nH]1)Nc1nc2ccccc2s1 | 28 µM | > 32 µM | 32 µg/mL (≈ 99 µM)
CS(=O)(=O)c1ccc2nc(NC(=O)NCc3nc(-c4ccccc4)c[nH]3)sc2c1 | 0.14 µM | > 32 µM | 0.5 µg/mL (≈ 1.17 µM)
O=C(Nc1nc2ccccc2s1)OCc1nc2ccccc2[nH]1 | > 32 µM | – | > 32 µg/mL
Nc1nc2ccc(C(=O)O)cc2s1 | > 32 µM | – | –
CS(=O)(=O)c1ccc2nc(NC(=O)NCc3cccnc3)sc2c1 | 24 µM | – | > 32 µg/mL
